Molecular target: T1, Human serum albumin (HSA) (Homo sapiens, UniProt P02768)
T1 construct: gene ALB
Assay: intrinsic fluorescence quenching, excitation […] nm, emission […] nm
Assay type: binding
Settings: 295 K, PBS pH 7.4, 0.5 uM HSA, no warfarin; double-log; n 0.8430; quenching described as dynamic; Sudlow's site I (IIA)

T1 sequence (P02768 25-609): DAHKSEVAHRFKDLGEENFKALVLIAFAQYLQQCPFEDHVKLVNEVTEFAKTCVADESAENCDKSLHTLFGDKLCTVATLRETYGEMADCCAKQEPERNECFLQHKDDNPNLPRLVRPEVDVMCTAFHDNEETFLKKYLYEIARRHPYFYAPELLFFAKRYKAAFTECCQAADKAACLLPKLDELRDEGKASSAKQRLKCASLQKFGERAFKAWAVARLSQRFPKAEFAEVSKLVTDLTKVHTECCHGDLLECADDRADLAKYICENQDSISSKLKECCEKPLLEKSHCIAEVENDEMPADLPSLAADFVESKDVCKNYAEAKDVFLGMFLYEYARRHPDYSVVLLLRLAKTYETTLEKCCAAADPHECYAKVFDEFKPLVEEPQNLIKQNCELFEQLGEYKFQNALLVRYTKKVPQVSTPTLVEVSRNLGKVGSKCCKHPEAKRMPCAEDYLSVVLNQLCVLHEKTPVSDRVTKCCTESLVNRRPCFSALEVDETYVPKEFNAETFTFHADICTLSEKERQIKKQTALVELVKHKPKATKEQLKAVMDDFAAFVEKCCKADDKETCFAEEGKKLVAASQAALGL

SMILES: CC(C)=CCc1cc(/C=C/C(=O)O)cc(CC=C(C)C)c1O [Artepillin C, 3,5-diprenyl-4-hydroxycinnamic acid]
- KA: 908000 L/mol
